Literature values in patent US20220202699A1 (priority 2020, published 2022).

How the values were obtained:
[1] = in vivo
influenza A virus [2] = test system: influenza A virus
influenza A virus [3] = test system: influenza A virus; remark: listed apart in the source
[4] = test system: Toll-like receptors (TLR); settings: suppress innate immunity
[5] = test system: inflammatory cell infiltrates (neutrophils and lymphocytes); settings: in vivo

| Structure (SMILES) | bronchodilator effect [1] | binding affinity for the influenza A virus (influenza A virus [2]) | binding of the influenza A virus to the surrogate host cells (influenza A virus [3]) | membrane convergence of influenza A and host cell (influenza A virus [3]; influenza A, model MDCK cells) | functioning as deactivators of Toll-like receptors (TLR) [4] | virus-induced proinflammatory cytokines [5] |
| --- | --- | --- | --- | --- | --- | --- |
| CC(C)(C)NCC(O)c1ccc(O)c(CO)c1 (stereo not drawn) [Albuterol] | effective bronchodilator |  |  |  |  |  |
| CCCCC/C=C\C/C=C\C/C=C\C/C=C\CCCC(=O)OC(COC(=O)CCCCCCCCCCCCCCCCC)COP(=O)(O)OC1C(O)C(O)C(O)C(O)C1O (stereo not drawn) [PI, phosphatidyl inositol] |  | high binding affinity | prevent the binding | inhibited | deactivators of Toll-like receptors | reduced |
